According to the supplement of paper PMC10307832:

Assays:
Experiment in all cases: relative viability (nuclei count vs DMSO), 5 days (fraction); higher = more cells survive
IMD-0354 + Vorinostat = compound: O=C(Nc1cc(C(F)(F)F)cc(C(F)(F)F)c1)c1cc(Cl)ccc1O [IMD-0354] + O=C(CCCCCCC(=O)Nc1ccccc1)NO [Vorinostat] (partner 1 µM)
In short: (§1)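 Lung cancer cell lines, seeded in 1536-well plates, were treated the following day by pin tool with a single drug or with five library-drug doses (not always all listed) in √10 steps on top of a fixed anchor-drug dose. Cells were fixed and nuclei stained in one step after 5 days, and nuclei were counted. Relative viability is the nuclei count for treated wells divided by that for vehicle wells, reported as medians of duplicate plates.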

CX-5461 + Phenformin = compound: Cc1cnc(CNC(=O)c2c(=O)c3ccc(N4CCCN(C)CC4)nc3n3c2sc2ccccc23)cn1 [CX-5461] + N=C(N)NC(=N)NCCc1ccccc1 [Phenformin] (partner 250 µM)
In short: as §1

IMD-0354 + Lapatinib = compound: O=C(Nc1cc(C(F)(F)F)cc(C(F)(F)F)c1)c1cc(Cl)ccc1O [IMD-0354] + CS(=O)(=O)CCNCc1ccc(-c2ccc3ncnc(Nc4ccc(OCc5cccc(F)c5)c(Cl)c4)c3c2)o1 [Lapatinib] (partner 2 µM)
In short: as §1

CX-5461 + Vorinostat = compound: Cc1cnc(CNC(=O)c2c(=O)c3ccc(N4CCCN(C)CC4)nc3n3c2sc2ccccc23)cn1 [CX-5461] + O=C(CCCCCCC(=O)Nc1ccccc1)NO [Vorinostat] (partner 1 µM)
In short: as §1

Row | Cell Line | relative viability (IMD-0354 + Vorinostat; first compound 0.04 µM) | relative viability (IMD-0354 + Vorinostat; first compound 0.1265 µM) | relative viability (IMD-0354 + Vorinostat; first compound 0.4 µM) | relative viability (IMD-0354 + Vorinostat; first compound 1.265 µM) | relative viability (IMD-0354 + Vorinostat; first compound 4 µM) | relative viability (CX-5461 + Phenformin; first compound 0.01 µM) | relative viability (CX-5461 + Phenformin; first compound 0.03162 µM) | relative viability (CX-5461 + Phenformin; first compound 0.1 µM) | relative viability (CX-5461 + Phenformin; first compound 0.3162 µM) | relative viability (CX-5461 + Phenformin; first compound 1 µM) | relative viability (IMD-0354 + Lapatinib; first compound 0.04 µM) | relative viability (IMD-0354 + Lapatinib; first compound 0.1265 µM) | relative viability (IMD-0354 + Lapatinib; first compound 1.265 µM) | relative viability (IMD-0354 + Lapatinib; first compound 4 µM) | relative viability (CX-5461 + Vorinostat; first compound 0.01 µM) | relative viability (CX-5461 + Vorinostat; first compound 0.03162 µM) | relative viability (CX-5461 + Vorinostat; first compound 0.1 µM) | relative viability (CX-5461 + Vorinostat; first compound 0.3162 µM) | relative viability (CX-5461 + Vorinostat; first compound 1 µM) | relative viability (IMD-0354 + Lapatinib; first compound 0.4 µM)
1 | NCI-H1944 | 0.496 | 0.575 | 0.384 | 0.251 | 0.148 | 0.228 | 0.193 | 0.181 | 0.159 | 0.122 | 0.699 | 0.862 | 0.922 | 0.171 | 0.538 | 0.569 | 0.383 | 0.25 | 0.271 | –
2 | NCI-H2023 | 0.7 | 0.738 | 0.464 | 0.127 | 0.104 | 0.374 | 0.335 | 0.194 | 0.294 | 0.0701 | 0.717 | 0.841 | 0.0897 | 0.084 | 0.564 | 0.355 | – | 0.15 | 0.0756 | 0.662
3 | COR-L 105 | 0.863 | 0.771 | 0.672 | 0.679 | 0.378 | 0.496 | 0.557 | 0.414 | 0.405 | 0.306 | 0.332 | 0.329 | 0.243 | 0.253 | 0.929 | 0.872 | 0.728 | 0.71 | 0.599 | 0.339
4 | RERF-LC-KJ | 0.775 | 0.677 | 0.542 | 0.167 | 0.172 | 0.448 | 0.457 | 0.292 | 0.41 | 0.386 | 0.863 | 0.981 | 0.355 | 0.265 | 0.724 | 0.756 | 0.532 | 0.589 | 0.54 | 0.507
5 | LXF-289 | 0.764 | 0.735 | 0.612 | 0.261 | 0.137 | 0.523 | 0.526 | 0.521 | 0.255 | 0.276 | 0.948 | 0.895 | 0.301 | 0.188 | 0.803 | 0.744 | 0.635 | – | 0.544 | 0.835
6 | PC-14 | 0.83 | 0.751 | 0.564 | 0.234 | 0.119 | 0.761 | 0.511 | 0.499 | 0.229 | 0.319 | 0.291 | 0.384 | 0.347 | 0.109 | 0.65 | 0.797 | 0.533 | 0.527 | 0.106 | 0.197
7 | NCI-H650 | 0.385 | 0.445 | 0.349 | 0.366 | 0.133 | 0.486 | 0.441 | 0.429 | 0.487 | 0.386 | 1.11 | 0.864 | 0.451 | 0.22 | 0.462 | 0.294 | 0.635 | 0.399 | 0.312 | 0.614
8 | NCI-H1666 | 1.03 | 1.01 | 0.805 | 0.908 | 0.832 | 0.542 | 0.551 | 0.505 | 0.548 | 0.507 | 0.631 | 0.617 | 0.176 | 0.167 | 0.986 | 1.05 | 1.07 | 0.981 | 0.975 | 0.452
9 | NCI-H2085 | 0.825 | 0.902 | 0.617 | 0.376 | 0.362 | 0.768 | 0.691 | 0.704 | 0.658 | 0.587 | 0.78 | 0.797 | 0.389 | 0.298 | 0.854 | 0.82 | 0.708 | 0.865 | 0.719 | 0.64
10 | NCI-H1734 | 0.879 | 0.781 | 0.454 | 0.301 | 0.102 | 0.411 | 0.376 | 0.374 | 0.306 | 0.218 | 1.23 | 1.07 | 0.232 | 0.218 | 0.83 | 0.908 | 0.744 | 0.278 | 0.35 | 0.493
11 | NCI-H2126 | 0.762 | 0.826 | 0.692 | 0.382 | 0.289 | 0.576 | 0.542 | 0.513 | 0.589 | 0.407 | 0.793 | 0.803 | 0.768 | 0.378 | 0.725 | 0.861 | 0.79 | 0.522 | 0.881 | 0.655
12 | EMC-BAC-2 | 0.547 | 0.473 | 0.419 | – | 0.439 | 0.507 | 0.518 | 0.399 | 0.299 | 0.271 | 0.965 | 0.803 | 0.408 | 0.229 | 0.435 | 0.138 | 0.269 | 0.203 | 0.201 | 0.555
13 | NCI-H1993 | 0.75 | 0.696 | 0.582 | 0.313 | 0.498 | 0.478 | 0.476 | 0.457 | 0.452 | 0.416 | 0.79 | 0.788 | 0.497 | 0.562 | 1.11 | 0.988 | 0.889 | 0.403 | 0.638 | 0.754
14 | NCI-H520 | 0.815 | 0.709 | 0.51 | 0.192 | 0.248 | 0.577 | 0.503 | 0.717 | 0.303 | 0.36 | 0.932 | 0.792 | 0.197 | 0.197 | 0.734 | 0.681 | 0.661 | 0.642 | 0.291 | 0.46
15 | NCI-H647 | 0.76 | 0.603 | 0.3 | 0.128 | 0.0744 | 0.518 | 0.575 | 0.401 | 0.364 | 0.24 | 1.63 | 0.859 | 0.193 | 0.0984 | 0.646 | 0.536 | 0.441 | 0.548 | 0.251 | 0.495
